≈ marks a conversion by molar mass, not a printed value. Where “and” joins values, the source holds several entries; their conditions need not be identical. Equal values may be shown once. Entries after “also recorded” stand apart in the source; their conditions may differ. No end group written: not given here. *: point of attachment. For = O=C*
What was measured:
[1] = system: antithrombin III; conditions: cited from earlier work
[2] = physchem; conditions: water
From the text: (§1) Multiple batches of Ferrioxamine:Dermatan Sulfate Agent have been prepared.

[3] = T1 relaxivity (R1), IBM PC20 Minispectrometer / ICP-AA metal measurement; assay type: physicochemical
Experimental: Batch quantities of the Fe(III) chelate of deferoxamine are prepared as follows. Deferoxamine mesylate (methanesulfonate) (Ciba-Geigy Limited, Basel, Switzerland), 390 g, is dissolved in pharmaceutical-grade water. Alternatively, the chloride salt of deferoxamine may be used. […] This final batch volume is adjusted as desired, typically to a final volume of 2600 mL. Any remaining trace amounts of unreacted Fe(O)OH are removed and the solution also made aseptic, by passing the supernatant through a 0.22 μm Millipore GV-type filter in a Class 100 laminar flow hood. The resulting batch is stored at 4° C. in an autoclaved, sealed glass container until further use (see Examples below). The final concentration of ferrioxamine (DFe) is determined once again by UV-Visible absorbance spectrophotometry at 430 nm.
The pH is adjusted to 7.0 by addition of 1.0 N NaOH. […] In the case of gadolinium oxide, neutralization with 1.0 N NaOH is not needed. […] This precipitate is rewashed with ethanol and centrifuged (as above), washed with acetone plus centrifuged, and the collected precipitate dried over a stream of dry nitrogen.

[4] = system: syngeneic breast adenocarcinoma; assay: MRI contrast enhancement of breast adenocarcinoma inoculated in liver (and metastases); assay type: in vivo, Fisher 344 female rats; conditions: 7 MPI, 0.155 mmol/Kg i.v.
From the text: FIG. 2A, FIG. 2B, FIG. 3A, FIG. 3B, FIG. 4A, FIG. 4B, FIG. 4C, FIG. 4D and FIG. 8A, FIG. 8B and FIG. 8C show T1-weighted MRI images (TR/TE=800/45, 550/23 and 600/45) performed at 1.0 and 1.5 Tesla, before (Pre) and after (Post) intravenous (i.v.) injection of Ferrioxamine:Dermatan Sulfate Selective Paramagnetic Contrast Agent, prepared as in Examples 2 and 5, and injected i.v. at a Ferrioxamine dose of 0.155 mmol/Kg into Fisher 344 female rats, with syngeneic breast adenocarcinoma inoculated previously into the liver, such that tumor diameters at the time of imaging are between 1.0 cm and 2.5 cm.
(§2) Tumors are not conspicuous on standard T1-weighted Precontrast images. […] The sustained intervals shown in FIG. 8A, FIG. 8B and FIG. 8C are much longer than those typically reported for Gd:DTPA dimeglumine contrast enhancement at body organ sites.
T1-weighted MRI images (TR-TE=800/45) are performed at 1.0 Tesla, before (Pre) and after (Post) intravenous (i.v.) injection of Gd:MPD-DTPA:DS (DS=435 Type, Opocrin) at a dose of 0.155 mmol/kg into Fisher 344 female rats with syngeneic breast adenocarcinomas inoculated by trocar into the livers, as in Example 18 (above). A T2 scout image (TR/TE=2100/85) is performed in advance of the T1 image contrast series, in order to identify the approximate location(s) of tumor nodule(s) (FIG. 18A). […]

[5] = system: syngeneic breast adenocarcinoma; assay: Special histologic iron stain of breast adenocarcinoma; assay type: in vivo, Fisher 344 female rats; conditions: central tumor, 7-10 MPI
From the text: FIG. 6. Special histologic stain (heated ferroferricyanide reaction) of formalin-fixed section of syngeneic breast adenocarcinoma excised from liver inoculation site of Fisher 344 female rats: […] Sulfate Selective MRI Contrast Agent.
as §2

[6] = system: acute myocardial infarct; assay: MRI contrast enhancement of acute myocardial infarcts; assay type: in vivo, German Shepherd dogs; conditions: 0.155 mmol/Kg
From the text: FIG. 11A, FIG. 11B, FIG. 11C and FIG. 11D show T1-weighted MRI ECG-gated cardiovascular images performed at 0.5 Tesla, before (Pre) and after (Post) rapid intravenous (i.v.) infusion of Ferrioxamine:Dermatan Sulfate Selective Paramagnetic Contrast Agent prepared as in Examples 2 and 5, and injected i.v. at an Iron(III) dose of 0.155 mmol/Kg into German Shepherd dogs with acute, 90-min myocardial infarcts (ligature of proximal left anterior descending coronary artery) followed by reperfusion for ca. 90 minutes prior to contrast agent infusion.
In these studies, infarct sizes and positions are documented by double dye infusion performed immediately after MRI imaging.

[7] = Binding of active to dermatan sulfate carrier (dialysis retention, 500 MW cutoff); conditions: for paired-ion binding of peptide to dermatan sulfate: ca. 60:40 (active to dermatan sulfate)
Experimental: as §1
Vincristine (Sigma Chemical Co., St. Louis) is dissolved in water and mixed with dermatan sulfate at ratios of between 90:10 and 30:70 (w/w) drug to dermatan sulfate.
Amikacin, gentamicin and tobramycin (all obtained from Sigma Chemical Co., St. Louis) are dissolved in water and mixed with either dermatan sulfate (435 Type) or beef lung heparin (Hepar-Kabi-Pharmacia) at ratios of between 90:10 and 30:70 (w/w) drug to glycosaminoglycan.

[8] = Gd(III) when chelated by DTPA; cited from earlier work
[9] = system: syngeneic breast adenocarcinoma; conditions: rat, in vivo, iv; cited from earlier work
[10] = Binding of complexes to heparin or sucrose octasulfate (dialysis, UV-Visible titration, solubilization)
Experimental: UV-Visible spectrophotometric titration indicates maximum binding occurs at a molar ratio of 18:1 (iron-porphine:heparin).
(a) To this resulting aqueous dispersion of complex is added beef lung heparin, to give final complex-to-heparin ratios of between 95:5 and 5:95 (by weight). […] This apparent solubilization is indicative of paired-ion binding between triethylenetetraamine-iron and heparin.
(b) To the aqueous dispersion of triethylenetetraamine-iron complex is added sucrose octasulfate (SOS), to give final complex-to-SOS ratios of between 95:5 and 5:95 (by weight).

[11] = system: AT-1 prostate adenocarcinoma; assay: MRI contrast enhancement of AT-1 prostate adenocarcinoma; assay type: in vivo, Copenhagen rats
Experimental: (§3) FIG. 14A, FIG. 14B, FIG. 14C and FIG. 14D show MRI 4.7 Tesla, T1-weighted images of Copenhagen rats with the AT-1 prostate tumor model (as in FIG. 13A, FIG. 13B, FIG. 13C and FIG. 13D), but rats are injected i.v. with Ferrioxamine Selective Contrast Agent, wherein the Active is non-covalently bound to Oversulfated Dermatan Sulfate, the Agent lyophilized and reconstituted with water just prior to administration at a concentration of 0.332 mmol/mL Fe(III) and administered at the usual dose of 0.155 mmol of Fe(III) per Kg.
as §3, with “15A,” for “14A,”, “15B,” for “14B,”, “15C” for “14C”, “15D” for “14D”, “Chondroitin” for “Dermatan”
as §3, with “16A,” for “14A,”, “16B,” for “14B,”, “16C” for “14C”, “16D” for “14D”, “a non-anticoagulant GAG, Heparan” for “Oversulfated Dermatan”
FIG. 19A, FIG. 19B, FIG. 19C, FIG. 19D and FIG. 19E show T1-weighted images at 4.7 Tesla (TR/TE=250/8) of Copenhagen rats with syngeneic AT-1 prostate adenocarcinomas inoculated into previously prepared skin pouches [Hahn et al. (1993)], and imaged at diameters of 1.0-2.5 cm.
Based on low anticoagulant activity, safety and projected site-localizationpotential, certain alternative glycosaminoglycan carriers and certain alternative physical forms of the resulting Selective MRI Contrast Agents are compared for their relative in vivo potencies of carrier-mediated tumor localization of bound Ferrioxamine. Because of its high spatial resolution and capacity to detect subtle quantitative differences in agent localization, the AT-1 prostate tumor model of Example 19 is used.

[12] = comparison value; cited from earlier work

dermatan sulfate
inhibition of antithrombin III [1]: neither dermatan sulfate nor its 8-12 unit fragment inhibits

CC(=O)N(O)CCCCCNC(=O)CCC(=O)N(O)CCCCCNC(=O)CCC(=O)N(O)CCCCCN [deferoxamine]
solubility [2]: 320 mg/mL (≈ 571 mM)

CC(=O)N([O-])CCCCCNC(=O)CCC(=O)N([O-])CCCCCNC(=O)CCC(=O)N([O-])CCCCCN.[Fe+3] [Ferrioxamine]
R1 (T1 relaxivity) [3]: 1.5-1.8 [mmol.sec]^-1 and 1.6-1.8 [mmol.sec]^-1 and 1.6 (mmol.sec)^-1 | MRI contrast enhancement of breast tumor in liver [4]: only very slight or nonexistent | staining positivity for iron [5]: complete absence of staining positivity | MRI enhancement of infarct, active without carrier [6]: no detectible enhancement | MRI enhancement of infarct, active without carrier ([6]; listed as Ferrioxamine Agent Alone): no detectable enhancement

arg-pro-pro-gly-phe-ser-pro-phe-arg (RPPGFSPFR; formulated with dermatan sulfate) [arginine bradykinin, basic peptide, formulated with dermatan sulfate]
paired-ion binding of peptide to dermatan sulfate [7]: Strong paired-ion binding

O=C([O-])CN(CCN(CC(=O)[O-])CC(=O)O)CCN(CC(=O)[O-])CC(=O)O.[Gd+3] [Gd:DTPA]
in vitro R1 [8]: 4.0-4.3 [mmol.sec]^-1 | t1/2 at the site [9]: 12 to 20 min

CC[C@]1(O)C[C@H]2CN(CCc3c([nH]c4ccccc34)[C@@](C(=O)OC)(c3cc4c(cc3OC)N(C=O)[C@H]3[C@@](O)(C(=O)OC)[C@H](OC(C)=O)[C@]5(CC)C=CCN6CC[C@]43[C@@H]65)C2)C1 [Vincristine]
retention inside 500 MW cutoff dialysis bag [7]: not the drug alone

5,10,15,20-tetrakis(1-methyl-4-pyridyl)-21H-23H-porphine [iron-porphine]
Binding of iron-porphine to heparin [10]: ~100% | dialysis of iron-porphine alone [10]: nearly completely dialyzed | molar ratio at maximum binding (iron-porphine:heparin) [10]: 18:1

N-formyl-met-leu-phe-lys (For-MLFK) [basic white-cell chemoattractant peptide, formulated with dermatan sulfate]
paired-ion binding of peptide to dermatan sulfate [7]: Strong paired-ion binding | fluorescence on binding to dermatan sulfate ([7]; emission 518 nm, excitation 257 nm): fluorescence enhancement

CNC[C@H](O)[C@@H](O)[C@H](O)[C@H](O)CO.CNC[C@H](O)[C@@H](O)[C@H](O)[C@H](O)CO.O=C([O-])CN(CCN(CC(=O)[O-])CC(=O)O)CCN(CC(=O)[O-])CC(=O)O.[Gd+3] [Gd:DTPA dimeglumine]
MRI contrast enhancement of AT-1 tumor ([11]; 7 MPI): the outer rim is not well delineated | MRI contrast enhancement of AT-1 tumor ([11]; 20 MPI): Marked early contrast fading occurs overall in the tumor | MRI contrast enhancement of AT-1 tumor ([11]; 40 MPI): enhancement is nearly reverted to background levels; also recorded: enhancement reverts to essentially background levels | MRI contrast enhancement of AT-1 tumor ([11]; 60 MPI): no residual contrast, except for central cystic regions | LD50 [12]: 4.0 mmol/kg

Reference: patent publication US6106866A, “In vivo agents comprising cationic drugs, peptides and metal chelators with acidic saccharides and glycosaminoglycans, giving improved site-selective localization, uptake mechanism, sensitivity and kinetic-spatial profiles, including tumor sites” (Access Pharmaceuticals, Inc., priority 1995, dated 2000)
